Data set [1] has as its target T1, BRD9 (Homo sapiens, UniProt Q9H8M2).
T1 sequence (Q9H8M2 1-597): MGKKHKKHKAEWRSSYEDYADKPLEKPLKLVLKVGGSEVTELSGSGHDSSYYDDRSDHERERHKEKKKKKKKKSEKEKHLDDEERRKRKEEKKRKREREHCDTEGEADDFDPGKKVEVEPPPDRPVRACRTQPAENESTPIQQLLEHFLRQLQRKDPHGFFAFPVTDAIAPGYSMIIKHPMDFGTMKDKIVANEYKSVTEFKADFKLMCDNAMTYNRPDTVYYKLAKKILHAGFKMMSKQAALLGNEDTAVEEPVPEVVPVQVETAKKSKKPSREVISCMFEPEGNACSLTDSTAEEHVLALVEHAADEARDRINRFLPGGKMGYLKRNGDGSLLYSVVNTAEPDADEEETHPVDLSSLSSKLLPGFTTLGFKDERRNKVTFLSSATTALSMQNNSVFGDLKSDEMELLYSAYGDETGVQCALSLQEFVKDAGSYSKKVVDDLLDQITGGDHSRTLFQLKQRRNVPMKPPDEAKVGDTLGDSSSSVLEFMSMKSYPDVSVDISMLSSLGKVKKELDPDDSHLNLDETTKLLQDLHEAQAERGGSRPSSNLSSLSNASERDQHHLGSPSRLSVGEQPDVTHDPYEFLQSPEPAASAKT
The experiment in a line: BRD9 HiBiT degradation assay in 293T.166 (HEK293T.166) cells. The format is cell-based. Further details: endogenously expressing BRD9 with HiBiT fusion tag via CRISPR; host or cells: HEK293T.166 (293T.166, BRD9-HiBiT HEK293, LgBiT by lentivirus). To be noted: for DC50: 2.0 hours, read-out: HiBiT-Degradation 293T.166 BRD9 2.0 hours (DC50). The protocol: Selected compounds were tested in a BRD9 degradation assay using the HiBit Method.
Dulbecco's modified Eagle medium (DMEM) without phenol red and fetal bovine serum (FBS) were purchased from Gibco (Grand Island, NY, USA). Nano-Glo® HiBiT Lytic Assay System was purchased from Promega (Madison, WI, USA). 293T.166 (BRD9-HiBiT) cell line, endogenously expressing BRD9 with HiBiT fusion tag via CRISPR and ectopically expressing LgBiT tag, was purchased from Promega (Madison, WI, USA). 293T.167 (BRD7-HiBiT) cell line, endogenously expressing BRD7 with HiBiT fusion tag via CRISPR and ectopically expressing LgBiT tag, was purchased from Promega (Madison, WI, USA). 293T.92 (BRD4-HiBiT) cell line, endogenously expressing BRD4 with HiBiT fusion tag via CRISPR and ectopically expressing LgBiT tag, was generated in-house. Cell culture flasks and 384-well microplates were acquired from VWR (Radnor, PA, USA).
BRD9 degradation was determined based on quantification of luminescent signal using Nano-Glo® HiBiT Lytic Assay kit. Test compounds were added to the 384-well plate from a top concentration of 10 μM with 11 points, half log titration in duplicates. 293T.166 cells were added into 384-well plates at a cell density of 10,000 cells per well. The plates were kept at 37° C. with 5% CO2 for 2 hours. BRD7 and BRD4 degradation was similarly determined with 293T.167 cells and 293T.92 cells, respectively. The cells treated in the absence of the test compound were the negative control and the cells without Nano-Glo® HiBiT Lytic reagent were the positive control. After 2-hour incubation, Nano-Glo® HiBiT Lytic Assay reagents were added to the cells. Luminescence was acquired on EnVision® Multilabel Reader (Catalog No. 2104-0010, Perkin Elmer Inc., Dumfries, VA, USA).
This assay evaluates the degradation of BRD9 induced by treatment with Compound 1 or Compound 2 as measured by luminescence using Nano-Glo® HiBiT Lytic Assay System in HEK293 cells CRISPR-edited to endogenously express HiBiT tagged BRD9 and exogenously express LgBiT protein.
Nano-Glo® HiBiT Lytic Assay System was purchased from Promega (Catalog No. N3050, Madison, WI, USA). BRD9-HiBiT HEK293 cells were purchased from Promega (Catalog No. CS302348, Madison, WI, USA). The cells were maintained in Dulbecco's modified Eagle medium (DMEM) without phenol red (Catalog No. 12430112, ThermoFisher Scientific, Waltham, MA, USA) supplemented with 10% fetal bovine serum (FBS) (Catalog No. 16000-044, Gibco, Grand Island, NY, USA) at 37° C. in an atmosphere of 5% CO2 in air. The HiBiT polypeptide tag was introduced into the C-terminus of the endogenous BRD9 locus by CRISPR-Cas9 and the LgBiT protein was introduced via Lentiviral infection to produce the modified HEK293T.166 cell line. The HiBiT polypeptide and LgBiT protein allow reconstitution of NanoBiT enzyme in the cells. The Nano-Glo® HiBiT Lytic Substrate was then added and activated by the NanoBiT enzyme following cell lysis to produce a luminescent signal that is directly proportional to the amount of HiBiT-tagged BRD9.
The HEK293T.166 cells were routinely sub-cultured to maintain cell density between 30-80% confluence, not to exceed 20 passages. Cells were washed with PBS pH 7.4 (Catalog No. 10010049, ThermoFisher Scientific, Waltham, MA, USA), trypsinized for 5 minutes at 37° C., and resuspended in fresh growth media without phenol red. An aliquot was diluted 2× with Trypan Blue solution 0.4% (Catalog No. 15250061, ThermoFisher Scientific, Waltham, MA, USA) and cell count determined. Cell concentration was adjusted with growth media without phenol red to 3.3×10^5 cells/mL.
Compound 1 or Compound 2 was prepared by dissolving neat compounds in DMSO (Catalog No. D8418, Sigma-Aldrich, Inc., St. Louis, MO, USA) to generate 10 mM stock solution and stored at −20° C. […]
(In general: The HiBiT peptide binds its large partner to form an active luciferase.)

The nature of data set [2]: Competitive water activity study. The format is physicochemical. As to the method: Competitive water activity experiments at 25° C. were conducted for hydrate Pattern A and anhydrate Pattern G. Pattern A, and Pattern G, were equilibrated at 25° C. in 6 different water activities with acetone/water mixtures. Obtained suspensions were stirred at 25° C. for 3 days and 7 days. Obtained suspensions were centrifuged and obtained solids were analyzed by XRPD immediately.
Competitive water activity experiments at 25° C. were conducted for hydrate Pattern A and anhydrate Pattern M. Pattern A, and Pattern M were equilibrated at 25° C. in 6 different water activities with acetone/water mixtures. Obtained suspension was stirred at 25° C. for 3 days and 7 days. Obtained suspensions were centrifuged and obtained solids were analyzed by XRPD immediately.

Where [3] appears, read: Acetone/water (v:v = 60:40), a.w. 0.8.
The mark [4] stands for this setting: Acetone/water (v:v = 86:14), a.w. 0.6.
The mark [5] stands for this setting: Acetone/water (v:v = 95:5), a.w. 0.4.
Setting [6] is: Acetone/water (v:v = 98:2), a.w. 0.2.

A word on the DC50: it is the midpoint of the concentration-degradation curve. The Emax is the maximal effect, on the per cent scale that the assay sets. As for `COc1cc(-c2cn(C)c(=O)c(C)c2C)cc(OC)c1CN1CC[C@H](N2CCN(c3ccc(N[C@@H]4CCC(=O)NC4=O)cc3F)CC2)C(F)(F)C1` [Compound 2], the “% BRD9 Remaining Relative to Vehicle Control at 2 hr, Mean” value is on record as 103.0% in data set [1] (0.010 nM); 95.9% in data set [1] (0.032 nM); 105.0% in data set [1] (0.100 nM); 103.3% in data set [1] (0.315 nM); 105.4% in data set [1] (0.997 nM); 100.2% in data set [1] (3.15 nM). Moreover, the “% BRD9 Remaining Relative to Vehicle Control at 2 hr, Mean” value in data set [1] (10.0 nM) turned out to be 87.1%; in data set [1] (31.7 nM), 75.4%; in data set [1] (100 nM) it was 49.0%; in data set [1] (316 nM) it was 33.1%; in data set [1] (999 nM), 39.0%. Besides, the DC50 in data set [1] (293T.166 cells) was less than 0.1 µM. Also, the Emax in data set [1] (BRD9-HiBiT, 293T.166 cells, 2 hours, read-out: Mean Emax (%) ± SD) came to 33.1 ± 9.92%. Also, the Dmax in data set [1] (HEK293T.166 cells, 2-hour treatment, read-out: maximal degradation of BRD9) is approximately 70%.
Regarding `COc1cc(-c2cn(C)c(=O)c(C)c2C)cc(OC)c1CN1CC[C@@H](N2CCN(c3ccc(N[C@H]4CCC(=O)NC4=O)cc3F)CC2)C(F)(F)C1` [Compound 3], the DC50 in data set [1] (293T.166 cells) was less than 0.1 µM.
Still for that read-out and setting: then `COc1cc(-c2cn(C)c(=O)c(C)c2C)cc(OC)c1CN1CC[C@@H](N2CCN(c3ccc(N[C@@H]4CCC(=O)NC4=O)cc3F)CC2)C(F)(F)C1` [Compound 4], with less than 0.1 µM; and `COc1cc(-c2cn(C)c(=O)c(C)c2C)cc(OC)c1CN1CCC(N2CCN(c3ccc(NC4CCC(=O)NC4=O)cc3F)CC2)C(F)(F)C1` (centres unmarked) [Compound 5], with less than 0.1 µM.
`COc1cc(-c2cn(C)c(=O)c(C)c2C)cc(OC)c1CN1CC[C@H](N2CCN(c3ccc(N[C@H]4CCC(=O)NC4=O)cc3F)CC2)C(F)(F)C1` [Pattern A and Pattern G]: the XRPD-3 days result in data set [2] (Acetone, a.w. 0.0) is recorded as “Pattern B”; in data set [2] (setting [3]), “Pattern K”; in data set [2] (setting [4]) it was “Pattern B”; in data set [2] (setting [5]), “Pattern B”; in data set [2] (setting [6]), “Pattern B”. Also, the XRPD-7 days result in data set [2] (Acetone, a.w. 0.0) is given as “Pattern N”; in data set [2] (setting [3]) it was “Pattern K”; in data set [2] (setting [4]), “Pattern B”; in data set [2] (setting [5]), “Pattern N”; in data set [2] (setting [6]), “Pattern N”; in data set [2] (Water, a.w. 1.0), “Pattern K”.
Regarding `COc1cc(-c2cn(C)c(=O)c(C)c2C)cc(OC)c1CN1CC[C@H](N2CCN(c3ccc(N[C@H]4CCC(=O)NC4=O)cc3F)CC2)C(F)(F)C1` [Pattern A and Pattern M], the XRPD-3 days entry is given as “Pattern N” in data set [2] (Acetone, a.w. 0.0); “Pattern K” in data set [2] (setting [3]); “Pattern N” in data set [2] (setting [4]); “Pattern N” in data set [2] (setting [5]); “Pattern N” in data set [2] (setting [6]); “Pattern K” in data set [2] (Water, a.w. 1.0). The XRPD-7 days result was “Pattern N” in data set [2] (Acetone, a.w. 0.0); “Pattern A” in data set [2] (setting [3]); “Pattern N” in data set [2] (setting [4]); “Pattern N” in data set [2] (setting [5]); “Pattern N” in data set [2] (setting [6]); “Pattern A” in data set [2] (Water, a.w. 1.0).
Regarding `COc1cc(-c2cn(C)c(=O)c(C)c2C)cc(OC)c1CN1CC[C@H](N2CCN(c3ccc(N[C@H]4CCC(=O)NC4=O)cc3F)CC2)C(F)(F)C1` [Pattern A, Pattern C, Pattern D, and Pattern E], the XRPD-7 days result was “Pattern B” in data set [2] (Acetone, a.w. 0.0); “Pattern K” in data set [2] (Acetone/water (v:v = 36:64), a.w. 0.9); “Pattern K” in data set [2] (Acetone/water (v:v = 76:24), a.w. 0.7); “Pattern B” in data set [2] (Acetone/water (v:v = 92:8), a.w. 0.5); “Pattern B” in data set [2] (Acetone/water (v:v = 97:30), a.w. 0.3); “Pattern B” in data set [2] (Acetone/water (v:v = 99.5:0.5), a.w. 0.1). In addition, the XRPD-7 days result in data set [2] (Water, a.w. 1.0) is on record as “Pattern K”.

Source of the values: patent US20240245677A1, “SELECTED COMPOUNDS FOR TARGETED DEGRADATION OF BRD9” (C4 THERAPEUTICS, INC., priority 2021, published 2024).
